Experimental data taken from article PMC12454493, “Insight on novel sulfamoylphenyl pyrazole derivatives as anticancer carbonic anhydrase inhibitors” (Molecular Diversity, 2024).

Columns and labels:
MALME-3M = test: NCI-60 one-dose SRB screen (Melanoma); assay type: cell-based; settings: Homo sapiens, single dose 10 µM, 48 h, read-out: Growth inhibition percent (GI %)
Protocol: (§1) The National Cancer Institute (NCI) Developmental Therapeutic Program (www.dtp.nci.nih.gov) selected the 20 novel synthesized compounds 4a-e, 5a-e, 6a-c, 9a-e, 10 and 11 to test for their anticancer activity at a single dose of 10 µM using SRB assay. […] Supplementary Data S3; Table S1 presents the detailed screening results of the most promising compounds. The preliminary screening’s detailed results for the remaining compounds are elucidated in the (Supplementary Data S3; Table S2).
(§2) The guidelines of the Drug Evaluation Branch’s protocol at the NCI in Bethesda served as the basis for the in vitro anticancer screening assays. at one dose 10 µM against a panel of 60 cancer cell lines. The human tumor cell lines used belonged to nine panels: leukemia, melanoma, lung, colon, CNS, ovarian, renal, prostate and breast cancers using the sulforhodamine B (SRB) assay in a 48 h drug exposure protocol.

MDA-MB-435 = test: NCI-60 one-dose SRB screen (Melanoma); assay type: cell-based; settings: Homo sapiens, single dose 10 µM, 48 h, read-out: Growth inhibition percent (GI %)
Protocol: as §1, §2

SK-MEL-28 = test: NCI-60 one-dose SRB screen (Melanoma); assay type: cell-based; settings: Homo sapiens, single dose 10 µM, 48 h, read-out: Growth inhibition percent (GI %)
Protocol: as §1, §2

SK-MEL-2 = test: NCI-60 one-dose SRB screen (Melanoma); assay type: cell-based; settings: Homo sapiens, single dose 10 µM, 48 h, read-out: Growth inhibition percent (GI %)
Protocol: as §1, §2

SK-MEL-5 = test: NCI-60 one-dose SRB screen (Melanoma); assay type: cell-based; settings: Homo sapiens, single dose 10 µM, 48 h, read-out: Growth inhibition percent (GI %)
Protocol: as §1, §2

UACC-257 = test: NCI-60 one-dose SRB screen (Melanoma); assay type: cell-based; settings: Homo sapiens, single dose 10 µM, 48 h, read-out: Growth inhibition percent (GI %)
Protocol: as §1, §2

UACC-62 = test: NCI-60 one-dose SRB screen (Melanoma); assay type: cell-based; settings: Homo sapiens, single dose 10 µM, 48 h, read-out: Growth inhibition percent (GI %)
Protocol: as §1, §2

IGROV1 = test: NCI-60 one-dose SRB screen (Ovarian cancer); assay type: cell-based; settings: Homo sapiens, IGROV-1, single dose 10 µM, 48 h, read-out: Growth inhibition percent (GI %)
Protocol: as §1, §2

NCI/ADR-RES = test: NCI-60 one-dose SRB screen (Ovarian cancer); assay type: cell-based; settings: Homo sapiens, single dose 10 µM, 48 h, read-out: Growth inhibition percent (GI %)
Protocol: as §1, §2

OVCAR-3 = test: NCI-60 one-dose SRB screen (Ovarian cancer); assay type: cell-based; settings: Homo sapiens, single dose 10 µM, 48 h, read-out: Growth inhibition percent (GI %)
Protocol: as §1, §2

OVCAR-4 = test: NCI-60 one-dose SRB screen (Ovarian cancer); assay type: cell-based; settings: Homo sapiens, single dose 10 µM, 48 h, read-out: Growth inhibition percent (GI %)
Protocol: as §1, §2

OVCAR-5 = test: NCI-60 one-dose SRB screen (Ovarian cancer); assay type: cell-based; settings: Homo sapiens, single dose 10 µM, 48 h, read-out: Growth inhibition percent (GI %)
Protocol: as §1, §2

OVCAR-8 = test: NCI-60 one-dose SRB screen (Ovarian cancer); assay type: cell-based; settings: Homo sapiens, single dose 10 µM, 48 h, read-out: Growth inhibition percent (GI %)
Protocol: as §1, §2

SK-OV-3 = test: NCI-60 one-dose SRB screen (Ovarian cancer); assay type: cell-based; settings: Homo sapiens, single dose 10 µM, 48 h, read-out: Growth inhibition percent (GI %)
Protocol: as §1, §2

786-0 = test: NCI-60 one-dose SRB screen (Renal Cancer); assay type: cell-based; settings: Homo sapiens, single dose 10 µM, 48 h, read-out: Growth inhibition percent (GI %)
Protocol: as §1, §2

A498 = test: NCI-60 one-dose SRB screen (Renal Cancer); assay type: cell-based; settings: Homo sapiens, single dose 10 µM, 48 h, read-out: Growth inhibition percent (GI %)
Protocol: as §1, §2

ACHN = test: NCI-60 one-dose SRB screen (Renal Cancer); assay type: cell-based; settings: Homo sapiens, single dose 10 µM, 48 h, read-out: Growth inhibition percent (GI %)
Protocol: as §1, §2

CAKI-1 = test: NCI-60 one-dose SRB screen (Renal Cancer); assay type: cell-based; settings: Homo sapiens, single dose 10 µM, 48 h, read-out: Growth inhibition percent (GI %)
Protocol: as §1, §2

RXF 393 = test: NCI-60 one-dose SRB screen (Renal Cancer); assay type: cell-based; settings: Homo sapiens, single dose 10 µM, 48 h, read-out: Growth inhibition percent (GI %)
Protocol: as §1, §2

TK-10 = test: NCI-60 one-dose SRB screen (Renal Cancer); assay type: cell-based; settings: Homo sapiens, single dose 10 µM, 48 h, read-out: Growth inhibition percent (GI %)
Protocol: as §1, §2

UO-31 = test: NCI-60 one-dose SRB screen (Renal Cancer); assay type: cell-based; settings: Homo sapiens, single dose 10 µM, 48 h, read-out: Growth inhibition percent (GI %)
Protocol: as §1, §2

DU-145 = test: NCI-60 one-dose SRB screen (Prostate Cancer); assay type: cell-based; settings: Homo sapiens, single dose 10 µM, 48 h, read-out: Growth inhibition percent (GI %)
Protocol: as §1, §2

PC-3 = test: NCI-60 one-dose SRB screen (Prostate Cancer); assay type: cell-based; settings: Homo sapiens, single dose 10 µM, 48 h, read-out: Growth inhibition percent (GI %)
Protocol: as §1, §2

BT-549 = test: NCI-60 one-dose SRB screen (Breast Cancer); assay type: cell-based; settings: Homo sapiens, single dose 10 µM, 48 h, read-out: Growth inhibition percent (GI %)
Protocol: as §1, §2

HS 578T = test: NCI-60 one-dose SRB screen (Breast Cancer); assay type: cell-based; settings: Homo sapiens, single dose 10 µM, 48 h, read-out: Growth inhibition percent (GI %)
Protocol: as §1, §2

MCF-7 = test: NCI-60 one-dose SRB screen (Breast Cancer); assay type: cell-based; settings: Homo sapiens, MCF7, single dose 10 µM, 48 h, read-out: Growth inhibition percent (GI %)
Protocol: as §1, §2

MDA-MB-231/ATCC = test: NCI-60 one-dose SRB screen (Breast Cancer); assay type: cell-based; settings: Homo sapiens, single dose 10 µM, 48 h, read-out: Growth inhibition percent (GI %)
Protocol: as §1, §2

MDA-MB-468 = test: NCI-60 one-dose SRB screen (Breast Cancer); assay type: cell-based; settings: Homo sapiens, single dose 10 µM, 48 h, read-out: Growth inhibition percent (GI %)
Protocol: as §1, §2

T-47D = test: NCI-60 one-dose SRB screen (Breast Cancer); assay type: cell-based; settings: Homo sapiens, T47D, single dose 10 µM, 48 h, read-out: Growth inhibition percent (GI %)
Protocol: as §1, §2

hCA XII = hCA XII (Homo sapiens, UniProt O43570); test: CA inhibitory activity, spectrophotometric p-NPA assay; assay type: biochemical; settings: p-NPA substrate, pH 7.5, 25 °C, triplicate; read-out: IC50 (µM) ± SD hCA XII
Sequence of hCA XII (O43570 25-354): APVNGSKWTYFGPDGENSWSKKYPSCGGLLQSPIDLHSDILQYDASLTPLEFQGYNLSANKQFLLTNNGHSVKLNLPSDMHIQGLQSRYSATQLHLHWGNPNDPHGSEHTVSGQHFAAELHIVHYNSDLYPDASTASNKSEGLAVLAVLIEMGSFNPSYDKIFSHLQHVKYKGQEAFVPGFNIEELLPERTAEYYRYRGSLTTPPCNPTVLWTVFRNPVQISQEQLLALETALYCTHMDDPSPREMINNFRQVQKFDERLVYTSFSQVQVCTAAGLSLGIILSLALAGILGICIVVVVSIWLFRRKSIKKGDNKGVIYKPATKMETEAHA

Question: Which inhibition at 10 µM (MALME-3M) does the source give for `COc1ccc(-c2nn(-c3ccc(S(N)(=O)=O)cc3)cc2C(=O)NNC(N)=S)cc1` [Compound 9c, 2-[3-(4-Methoxyphenyl)-1-(4-sulfamoylphenyl)-1H-pyrazole-4-carbonyl] hydrazine-1-carbothioamide] here?
Answer: The inhibition at 10 µM was less than 5%.

Question: And the inhibition at 10 µM (MDA-MB-435)?
Answer: Its inhibition at 10 µM is less than 5%.

Question: And the inhibition at 10 µM (SK-MEL-28)?
Answer: Its inhibition at 10 µM is less than 5%.

Question: What about the inhibition at 10 µM (SK-MEL-2) of the same molecule?
Answer: Its inhibition at 10 µM is less than 5%.

Question: What about the inhibition at 10 µM (SK-MEL-5) of the same molecule?
Answer: Its inhibition at 10 µM is less than 5%.

Question: And the inhibition at 10 µM (UACC-257)?
Answer: The inhibition at 10 µM was less than 5%.

Question: What about the inhibition at 10 µM (UACC-62) of the same molecule?
Answer: The inhibition at 10 µM was 8.41%.

Question: What about the inhibition at 10 µM (IGROV1) of the same molecule?
Answer: The inhibition at 10 µM was less than 5%.

Question: And the inhibition at 10 µM (NCI/ADR-RES)?
Answer: The inhibition at 10 µM was less than 5%.

Question: What about the inhibition at 10 µM (OVCAR-3) of the same molecule?
Answer: The inhibition at 10 µM was less than 5%.

Question: And the inhibition at 10 µM (OVCAR-4)?
Answer: The inhibition at 10 µM was less than 5%.

Question: What about the inhibition at 10 µM (OVCAR-5) of the same molecule?
Answer: The inhibition at 10 µM was less than 5%.

Question: What about the inhibition at 10 µM (OVCAR-8) of the same molecule?
Answer: Its inhibition at 10 µM is less than 5%.

Question: What about the inhibition at 10 µM (SK-OV-3) of the same molecule?
Answer: Its inhibition at 10 µM is less than 5%.

Question: What about the inhibition at 10 µM (786-0) of the same molecule?
Answer: Its inhibition at 10 µM is less than 5%.

Question: What about the inhibition at 10 µM (A498) of the same molecule?
Answer: Its inhibition at 10 µM is less than 5%.

Question: What about the inhibition at 10 µM (ACHN) of the same molecule?
Answer: Its inhibition at 10 µM is less than 5%.

Question: And the inhibition at 10 µM (CAKI-1)?
Answer: The inhibition at 10 µM was less than 5%.

Question: And the inhibition at 10 µM (RXF 393)?
Answer: Its inhibition at 10 µM is less than 5%.

Question: What about the inhibition at 10 µM (TK-10) of the same molecule?
Answer: The inhibition at 10 µM was less than 5%.

Question: What about the inhibition at 10 µM (UO-31) of the same molecule?
Answer: Its inhibition at 10 µM is less than 5%.

Question: And the inhibition at 10 µM (DU-145)?
Answer: The inhibition at 10 µM was less than 5%.

Question: What about the inhibition at 10 µM (PC-3) of the same molecule?
Answer: The inhibition at 10 µM was less than 5%.

Question: And the inhibition at 10 µM (BT-549)?
Answer: Its inhibition at 10 µM is less than 5%.

Question: And the inhibition at 10 µM (HS 578T)?
Answer: The inhibition at 10 µM was less than 5%.

Question: And the inhibition at 10 µM (MCF-7)?
Answer: Its inhibition at 10 µM is less than 5%.

Question: And the inhibition at 10 µM (MDA-MB-231/ATCC)?
Answer: The inhibition at 10 µM was less than 5%.

Question: And the inhibition at 10 µM (MDA-MB-468)?
Answer: The inhibition at 10 µM was less than 5%.

Question: And the inhibition at 10 µM (T-47D)?
Answer: Its inhibition at 10 µM is less than 5%.

Question: What about the IC50 (hCA XII) of the same molecule?
Answer: Its IC50 is 0.168 ± 0.006 µM.

Question: And the melting point?
Answer: The melting point was 205 to 207 °C.
